Test results published in US9499547B2 (BAYER INTELLECTUAL PROPERTY GMBH, priority 2011, dated 2016).

Columns and labels:
human full-length MKNK1 [1] = molecular target: T1, human full-length MKNK1 (Homo sapiens (Human), UniProt Q9BUB5, T344D); assay: MKNK1 kinase high ATP assay (TR-FRET-based); format: biochemical; details: 2 mM ATP final conc.; 15 min preincubation with enzyme
Description: MKNK1 Kinase High ATP Assay
MKNK1-inhibitory activity at high ATP of compounds of the present invention after their preincubation with MKNK1 was quantified employing the TR-FRET-based MKNK1 high ATP assay as described in the following paragraphs.
As substrate for the kinase reaction the biotinylated peptide biotin-Ahx-[…] (C-terminus in amide form) was used, which can be purchased e.g. from the company Biosyntan (Berlin-Buch, Germany).
(§1) For the assay 50 nL of a 100 fold concentrated solution of the test compound in DMSO was pipetted into a black low volume 384 well microtiter plate (Greiner Bio-One, Frickenhausen, Germany), 2 μL of a solution of MKNK1 in aqueous assay buffer [50 mM HEPES pH 7.5, 5 mM magnesium chloride, 1.0 mM dithiothreitol, 0.005% (v/v) Nonidet-P40 (Sigma)] was added and the mixture was incubated for 15 min at 22° C. to allow pre-binding of the test compounds to the enzyme before the start of the kinase reaction. Then the kinase reaction was started by the addition of 3 μL of a solution of adenosine-tri-phosphate (ATP, 3.3 mM=>final conc. in the 5 μL assay volume is 2 mM) and substrate (0.1 μM=>final conc. in the 5 μL assay volume is 0.06 μM) in assay buffer and the resulting mixture was incubated for a reaction time of 30 min at 22° C. The concentration of MKNK1 was adjusted depending of the activity of the enzyme lot and was chosen appropriate to have the assay in the linear range, typical concentrations were in the range of 0.003 μg/mL. The reaction was stopped by the addition of 5 μL of a solution of TR-FRET detection reagents (5 nM streptavidine-XL665 [Cisbio Bioassays, Codolet, France] and 1 nM anti-ribosomal protein S6 (pSer236)-antibody from Invitrogen [#44921G] and 1 nM LANCE EU-W1024 labeled ProteinG [Perkin-Elmer, product no. AD0071]) in an aqueous EDTA-solution (100 mM EDTA, 0.1% (w/v) bovine serum albumin in 50 mM HEPES pH 7.5).
(§2) The resulting mixture was incubated for 1 h at 22° C. to allow the formation of complex between the phosphorylated biotinylated peptide and the detection reagents. Subsequently the amount of phosphorylated substrate was evaluated by measurement of the resonance energy transfer from the Eu-chelate to the streptavidine-XL. Therefore, the fluorescence emissions at 620 nm and 665 nm after excitation at 350 nm were measured in a TR-FRET reader, e.g. a Rubystar (BMG Labtechnologies, Offenburg, Germany) or a Viewlux (Perkin-Elmer). The ratio of the emissions at 665 nm and at […] was taken as the measure for the amount of phosphorylated substrate. The data were normalised (enzyme reaction without inhibitor=0% inhibition, all other assay components but no enzyme=100% inhibition).

human full-length MKNK1 [2] = molecular target: T1, human full-length MKNK1; assay: MKNK1 kinase assay (MKNK1 TR-FRET assay); format: biochemical; details: 10 μM ATP final conc.; 15 min preincubation with enzyme
Description: MKNK1-inhibitory activity of compounds of the present invention was quantified employing the MKNK1 TR-FRET assay as described in the following paragraphs.
As substrate for the kinase reaction the biotinylated peptide biotin-Ahx-[…] (C-terminus in amide form) was used which can be purchased e.g. form the company Biosyntan (Berlin-Buch, Germany).
as §1, with “16.7 μM=>final” for “3.3 mM=>final”, “10 μM)” for “2 mM)”, “45” for “30”, “0.05 μg/ml.” for “0.003 μg/mL.”
as §2

T1 sequence (Q9BUB5 other isoform, or with tags, fused parts or gaps T344D): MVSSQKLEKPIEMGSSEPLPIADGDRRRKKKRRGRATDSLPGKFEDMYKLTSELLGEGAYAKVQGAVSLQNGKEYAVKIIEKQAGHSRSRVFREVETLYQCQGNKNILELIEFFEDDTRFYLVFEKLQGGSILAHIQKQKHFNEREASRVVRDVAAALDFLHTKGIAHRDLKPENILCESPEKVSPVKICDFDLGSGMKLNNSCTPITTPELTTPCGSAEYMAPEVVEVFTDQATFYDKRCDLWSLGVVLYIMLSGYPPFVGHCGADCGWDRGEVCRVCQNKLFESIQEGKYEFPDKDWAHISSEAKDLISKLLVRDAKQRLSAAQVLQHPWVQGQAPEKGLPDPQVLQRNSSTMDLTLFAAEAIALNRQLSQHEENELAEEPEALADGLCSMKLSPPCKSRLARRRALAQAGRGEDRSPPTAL

Row | Compound | IC50 (human full-length MKNK1 [1]) [nM] | IC50 (human full-length MKNK1 [2]) [nM]
1 | NCCOCCOc1ccc2ncc(-c3cc4ccccc4o3)n2n1 [Example 21, 2-(2-{[3-(1-Benzofuran-2-yl)imidazo[1,2-b]pyridazin-6-yl]oxy}ethoxy)ethanamine] | 14 | –
2 | CC(C)(N)COc1ccc2ncc(-c3cc4ccccc4o3)n2n1 [Example 29, 1-{[3-(1-Benzofuran-2-yl)imidazo[1,2-b]pyridazin-6-yl]oxy}-2-methylpropan-2-amine] | 59 | 17
3 | NCC(Cc1ccncc1)Oc1ccc2ncc(-c3cc4ccccc4o3)n2n1 (stereo not drawn) [Example 54, 2-{[3-(1-Benzofuran-2-yl)imidazo[1,2-b]pyridazin-6-yl]oxy}-3-(pyridin-4-yl)-propan-1-amine] | 19 | –
4 | NCC(CN)Oc1ccc2ncc(-c3cc4ccccc4o3)n2n1 [Example 34, 2-{[3-(1-Benzofuran-2-yl)imidazo[1,2-b]pyridazin-6-yl]oxy}propane-1,3-diamine] | 92 | 39
5 | NCC(Oc1ccc2ncc(-c3cc4ccccc4o3)n2n1)C1CCOC1 (stereo not drawn) [Example 35, 2-{[3-(1-Benzofuran-2-yl)imidazo[1,2-b]pyridazin-6-yl]oxy}-2-(tetrahydrofuran-3-yl)ethanamine] | 52 | 32
6 | N[C@H]1C[C@H](Oc2ccc3ncc(-c4cc5ccccc5o4)n3n2)C1 [Example 2, trans-3-{[3-(1-Benzofuran-2-yl)imidazo[1,2-b]pyridazin-6-yl]oxy}cyclobutanamine] | 6 | 5
7 | N[C@H]1C[C@H](Oc2ccc3ncc(-c4cc5cc(F)ccc5o4)n3n2)C1 [Example 39, trans-3-{[3-(5-Fluoro-1-benzofuran-2-yl)imidazo[1,2-b]pyridazin-6-yl]oxy}-cyclobutanamine] | 6 | 3
8 | NCC(Oc1ccc2ncc(-c3cc4ccccc4o3)n2n1)c1cccc(C(F)(F)F)c1 (stereo not drawn) [Example 59, 2-{[3-(1-benzofuran-2-yl)-imidazo-[1,2-b]-pyridazin-6-yl]oxy}-2-[3-(tri-fluoro-methyl)-phenyl]-ethanamine] | – | 37
9 | C[C@H](CN)Oc1ccc2ncc(-c3cc4cccc(F)c4o3)n2n1 [Example 48, (2R)-2-{[3-(7-Fluoro-1-benzofuran-2-yl)imidazo[1,2-b]pyridazin-6-yl]oxy}-propan-1-amine] | 115 | 71
10 | Cc1ccc2oc(-c3cnc4ccc(O[C@H](C)CN)nn34)cc2c1 [Example 49, (2R)-2-{[3-(5-Methyl-1-benzofuran-2-yl)imidazo[1,2-b]pyridazin-6-yl]oxy}-propan-1-amine] | 154 | 88
11 | COc1cccc2oc(-c3cnc4ccc(OCCCCN)nn34)cc12 [Example 1, 4-{[3-(4-Methoxy-1-benzofuran-2-yl)imidazo[1,2-b]pyridazin-6-yl]oxy}butan-1-amine] | 5 | 3
12 | COc1ccc2oc(-c3cnc4ccc(OCCCN)nn34)cc2c1 [Example 9, 3-{[3-(5-Methoxy-1-benzofuran-2-yl)imidazo[1,2-b]pyridazin-6-yl]oxy}propan-1-amine] | 22 | 7
13 | NC(COc1ccc2ncc(-c3cc4ccccc4o3)n2n1)C1CCOCC1 (stereo not drawn) [Example 32, 2-{[3-(1-Benzofuran-2-yl)imidazo[1,2-b]pyridazin-6-yl]oxy}-1-(tetrahydro-2H-pyran-4-yl)ethanamine] | 79 | –
14 | NC1(COc2ccc3ncc(-c4cc5ccccc5o4)n3n2)CCC1 [Example 27, 1-({[3-(1-Benzofuran-2-yl)imidazo[1,2-b]pyridazin-6-yl]oxy}methyl)cyclobutanamine] | 29 | –
15 | NC[C@H](Oc1ccc2ncc(-c3cc4ccccc4o3)n2n1)c1cccnc1 [Example 55, (2R)-2-{[3-(1-benzofuran-2-yl)imidazo[1,2-b]pyridazin-6-yl]oxy}-2-(pyridin-3-yl)ethanamine] | – | 16
16 | NCC(Oc1ccc2ncc(-c3cc4ccccc4o3)n2n1)c1ccccn1 (stereo not drawn) [Example 57, 2-{[3-(1-benzofuran-2-yl)-imidazo-[1,2-b]-pyridazin-6-yl]oxy}-2-(pyridin-2-yl)-ethanamine] | – | 94
17 | NC(COc1ccc2ncc(-c3cc4ccccc4o3)n2n1)c1cccnc1 (stereo not drawn) [Example 63, 2-{[3-(1-benzofuran-2-yl)imidazo[1,2-b]pyridazin-6-yl]oxy}-1-(pyridin-3-yl)ethanamine] | – | 54
18 | N[C@H](COc1ccc2ncc(-c3cc4ccccc4o3)n2n1)c1ccc(F)cc1 [Example 61, (1S)-2-{[3-(1-benzofuran-2-yl)imidazo[1,2-b]pyridazin-6-yl]oxy}-1-(4-fluorophenyl)ethanamine] | – | 29
19 | N[C@H](COc1ccc2ncc(-c3cc4ccccc4o3)n2n1)c1ccc(Cl)cc1 [Example 62, (1S)-2-{[3-(1-benzofuran-2-yl)imidazo[1,2-b]pyridazin-6-yl]oxy}-1-(4-chlorophenyl)ethanamine] | – | 31
20 | NCC(Oc1ccc2ncc(-c3cc4ccccc4o3)n2n1)c1ccc(F)cc1F (stereo not drawn) [Example 60, 2-{[3-(1-benzofuran-2-yl)-imidazo-[1,2-b]-pyridazin-6-yl]oxy}-2-(2,4-di-fluoro-phenyl)-ethanamine] | – | 39
21 | C=CCCC(CN)Oc1ccc2ncc(-c3cc4ccccc4o3)n2n1 (stereo not drawn) [Example 28, 2-{[3-(1-Benzofuran-2-yl)imidazo[1,2-b]pyridazin-6-yl]oxy}hex-5-en-1-amine] | 45 | –
22 | NCCC(Oc1ccc2ncc(-c3cc4ccccc4o3)n2n1)c1ccc(F)cc1 (stereo not drawn) [Example 64] | – | 57
23 | N[C@@H]1CCCC[C@H]1Oc1ccc2ncc(-c3cc4ccccc4o3)n2n1 [Example 23, (1R,2R)-2-{[3-(1-Benzofuran-2-yl)imidazo[1,2-b]pyridazin-6-yl]oxy}cyclohexanamine] | 18 | –
24 | NCC(Oc1ccc2ncc(-c3cc4ccccc4o3)n2n1)c1ccc(F)cc1 (stereo not drawn) [Example 56, 2-{[3-(1-benzofuran-2-yl)-imidazo-[1,2-b]-pyridazin-6-yl]oxy}-2-(4-fluoro-phenyl)-ethanamine] | – | 40
25 | NCC(CN1CCOCC1)Oc1ccc2ncc(-c3cc4ccccc4o3)n2n1 (stereo not drawn) [Example 31, 2-{[3-(1-Benzofuran-2-yl)imidazo[1,2-b]pyridazin-6-yl]oxy}-3-(morpholin-4-yl)-propan-1-amine] | 78 | –
26 | NCC(Cc1ccc(F)cc1)Oc1ccc2ncc(-c3cc4ccccc4o3)n2n1 (stereo not drawn) [Example 53, 2-{[3-(1-Benzofuran-2-yl)imidazo[1,2-b]pyridazin-6-yl]oxy}-3-(4-fluorophenyl)-propan-1-amine] | 46 | –
27 | CC(C)Oc1cccc(C(CN)Oc2ccc3ncc(-c4cc5ccccc5o4)n3n2)c1 (stereo not drawn) [Example 58, 2-{[3-(1-benzofuran-2-yl)-imidazo-[1,2-b]-pyridazin-6-yl]oxy}-2-(3-iso-propoxy-phenyl)-ethanamine] | – | 20
